Measured values published in patent US12228565B2, “Blood cell lysis compositions and uses thereof” (Instrumentation Laboratory Company, priority 2021, dated 2025).

Tests used:
[1] = Surface tension of surfactant; assay type: physicochemical
From the text: (§1) Surfactants used for lysing, including the secondary alcohol ethoxylates described herein, may lower surface tension in a liquid blood sample and induce foam formation in the blood sample as air is mixed into the blood sample. Foam is detrimental to optical absorbance measurements because it causes additional light scattering. In some implementations, surfactants for performing cell lysis in CO-Oximetry may reduce or minimize foam formation and/or produce foam that dissipates quickly prior to spectral measurements. […] (Celsius). […] Standard measurements of the foam height may be taken, for example, five minutes after addition of the surfactant to a water based solution. The foam height produced by a secondary alcohol ethoxylate may be measured, for example, using the Ross-Miles method.
(§2) Triton-X100 is a control (or reference) surfactant against which the secondary alcohol ethoxylate surfactants are compared. […] In Table 1 below, […], which is a property of the surfactant that indicates/relates to the effectiveness of the material as a surfactant.

[2] = Foam height of surfactant in water based solution (Ross-Miles method); assay type: physicochemical
From the text: as §1, §2

whole blood cells = conditions: after 1 to 2 seconds; composition of Table 2, surfactant 9-14%
From the text: The blood sample analyzed by CO-Oximeter system 5 may be a whole blood sample that is lysed using one or more of the blood cell lysing compositions described herein. More specifically, in example CO-Oximeter 5, a blood cell lysis composition and a blood sample are introduced into a mixing chamber—e.g., through a mixing valve—in an optical cell 7. Movement of the blood sample and blood cell lysis composition through the mixing chamber under simultaneous actuation implemented by a solenoid causes the blood sample and lysis composition to simultaneously mix and lyse the red blood cells. The resulting mixture constitutes a lysed blood sample that is usable to obtain optical absorbance measurements by the CO-Oximeter with a reduction or elimination of scattering effects caused by red blood cells.
In an example testing procedure, secondary alcohol ethoxylate1 and secondary alcohol ethoxylate2 were included in the example blood cell lysis composition described with respect to Table 2 below at concentrations of 9% to 14% and tested in a CO-Oximetry system of the type described herein.

| Substance | Surface Tension (1% actives, 25° C.) [1] | Foam Height—5 minutes (0.1 weight % actives) [2] [mm] | Foam height—Initial (0.1 weight % actives) [2] [mm] | lysis of whole blood cells (whole blood cells) |
| --- | --- | --- | --- | --- |
| Tergitol™ Type 15-S-9 [secondary alcohol ethoxylate2] | 30 dynes/cm | 43 | 124 | about 100% |
| Triton X-100 [reference compound] | 33 dynes/ dynes/cm | 107 | 128 |  |
